Measurements: article PMC12332667, “Role of Structural Modifications in Peptidomimetic Compounds as Potential Antimicrobial Agents against Staphylococcus aureus and Streptococcus pyogenes: Balancing Bioavailability, Safety, and Antimicrobial Activity” (ACS Omega, 2025)
≈ marks a conversion by molar mass, not a printed value.

Experiments:
[1] = tested on: K. pneumoniae ATCC 700603; test: MIC/MBC broth microdilution, K. pneumoniae; type: cell-based
Procedure: (§1) S. aureus (ATCC 29213),S. pyogenes (ATCC 19615),Streptococcus agalactiae (ATCC 27956),Escherichia coli (ATCC 25922),Proteus vulgaris (ATCC 6896),K. pneumoniae (ATCC 700603) andP. aeruginosa (ATCC 10145) reference strains, as well asStaphylococcus cohnii, Enterococcus faecalis, Staphylococcus schleiferi, Staphylococcus intermedius and Streptococcus mutans clinical isolates, were used to test the antibacterial activity of the peptidomimetics. Bacteria were aerobically cultured for 18 h at 37 °C in plates with sterilized brain heart infusion (BHI) broth (Sigma-Aldrich, USA) media mixed with bacteriological agar (Sigma-Aldrich, USA) using the streak plate method. After 18 h, BHI broth was inoculated to 0.5 on the McFarland scale and diluted to approximately 10^5 CFU/mL. To achieve a final stock concentration of 1024 μg/mL, the peptidomimetics were dissolved in sterile water, and 5–10% of absolute ethanol or dimethyl sulfoxide (DMSO) was added. The antibacterial activities were determined by using the standard broth microdilution method of the National Committee for Clinical Laboratory Standards. The process involved adding serially diluted peptidomimetics to consecutive wells of a 96-well microtiter plate (Brand, Germany) holding media with microorganisms. The inoculated plates treated with peptides were then placed in an incubator at 37 °C for 18 h. The MIC value was determined as the lowest concentration of peptidomimetic at which there was no obvious growth (equal or more than 90% of the untreated sample). […] The lowest concentration yielding growth in no more than 3 colonies, corresponding to at least a 99.9% kill rate, was taken as MBC. Each biological replicate included control wells with the addition of water, DMSO, and ethanol as respective solvent controls. All experiments were conducted with consistent adherence to growth and sterility controls and were performed at least in technical triplicate with three biological repeats.

E. coli ATCC 25922 = test: MIC/MBC broth microdilution, E. coli; type: cell-based, Escherichia coli
Procedure: as §1

S. schleiferi c.i. = test: MIC/MBC broth microdilution, S. schleiferi; type: cell-based, Staphylococcus schleiferi
Procedure: as §1

[2] = tested on: human dermal fibroblast cell line (46BR.1N); test: XTT cell proliferation assay, fibroblasts; type: cell-based; settings: XTT
Procedure: (§2) In our study, we used two distinct cell types: immortalized human HaCaT keratinocytes (DKFZ, Heidelberg, Germany) and a human dermal fibroblast cell line (46BR.1N). […] Cultures were maintained in a humidified atmosphere with 5% CO2 at 37 °C in 25 cm^2 culture flasks with the medium replenished every 2 days. The condition of the cells was monitored using optical microscopy. […] After 24 h of incubation, the medium was replaced with serum-free HG-DMEM containing appropriate concentrations of peptidomimetics. All solutions used in the experiments were prepared with double-distilled water or with the addition of ethanol under sterile conditions to ensure compatibility with the conditions of the bacteriological assay. For 72 h of incubation, half of the medium was replaced with fresh medium after 48 h, and cells were stimulated with peptides for a second time. The XTT cell proliferation assay was then performed according to the manufacturer’s instructions (Roche, Switzerland). Cells were treated with the peptides for either 48 or 72 h, followed by the addition of XTT reagent, and the plates were then incubated at 37 °C in a 5% CO2 environment for 4 h. Plate readings were taken using a standard plate reader at a wavelength of 490 nm (OD = 490 nm). […] Statistical significance was determined with a Mann–Whitney U test with statistical significance p ≤ 0.05. Analysis was performed with Statistica software, and graphs were prepared in GraphPad Prism.

S. cohnii c.i. = test: MIC/MBC broth microdilution, S. cohnii; type: cell-based, Staphylococcus cohnii
Procedure: as §1

S. agalactiae ATCC 27956 = test: MIC/MBC broth microdilution, S. agalactiae; type: cell-based, Streptococcus agalactiae; settings: S. agalactiae
Procedure: as §1

[3] = tested on: immortalized human keratinocytes (HaCaT); test: LDH cytotoxicity test, keratinocytes; type: cell-based; settings: 48 h
Procedure: (§3) In our study, we used two distinct cell types: immortalized human HaCaT keratinocytes (DKFZ, Heidelberg, Germany) and a human dermal fibroblast cell line (46BR.1N). […] Cultures were maintained in a humidified atmosphere with 5% CO2 at 37 °C in 25 cm^2 culture flasks with the medium replenished every 2 days. The condition of the cells was monitored using optical microscopy.
(§4) Cell death in immortalized human keratinocytes (HaCaT) and fibroblasts (46BR.1N) was measured by quantifying the lactate dehydrogenase (LDH) activity using a commercial kit (Roche, Switzerland). Cells were seeded in 96-well plates at a density of 5000 cells per well in DMEM high glucose medium supplemented with 10% FBS. After 24 h of incubation, the medium was replaced with serum-free medium containing various concentrations of peptidomimetics (50, 100, and 150 μg/mL). After 48 h, supernatants were collected for LDH analysis. Plate readings were taken spectrophotometrically using a 450 nm wavelength. Cell death measurements were normalized to an untreated control (0%), with 1% Triton X-100 detergent used as a positive control to induce maximum LDH release, indicating maximal cytotoxicity. Statistical significance was determined with a Mann–Whitney U test with a statistical significance p ≤ 0.05. Analysis was performed with Statistica software (Krakow, Poland) and graphs were prepared in GraphPad Prism (Boston, USA).

S. mutans c.i. = test: MIC/MBC broth microdilution, S. mutans; type: cell-based, Streptococcus mutans
Procedure: as §1

P. aeruginosa ATCC 10145 = test: MIC/MBC broth microdilution, P. aeruginosa; type: cell-based
Procedure: as §1

S. intemrdius c.i. = test: MIC/MBC broth microdilution, S. intermedius; type: cell-based, Staphylococcus intermedius
Procedure: as §1

P. vulgaris ATCC 6896 = test: MIC/MBC broth microdilution, P. vulgaris; type: cell-based, Proteus vulgaris
Procedure: as §1

[4] = tested on: immortalized human HaCaT keratinocytes; test: XTT cell proliferation assay, keratinocytes; type: cell-based
Procedure: as §2

E. faecalis c.i. = test: MIC/MBC broth microdilution, E. faecalis; type: cell-based, Enterococcus faecalis
Procedure: as §1

fibroblasts (46BR.1N) = test: LDH cytotoxicity test, fibroblasts; type: cell-based; settings: 48 h
Procedure: as §3, §4

S. aureus ATCC 43300 = test: MIC/MBC broth microdilution, S. aureus; type: cell-based, Staphylococcus aureus; settings: S. aureus
S. pyogenes ATCC 19615 = test: MIC/MBC broth microdilution, S. pyogenes; type: cell-based, Streptococcus pyogenes; settings: S. pyogenes
Procedure: as §1

For `Cc1ccccc1COC(=O)N[C@@H](CCCNC(=N)N)C(=O)N[C@@H](CC(C)C)C(=O)N[C@H](CNC(=O)/C=C/c1ccccc1)C(C)C` [Compound A-210], the MIC ([1]; H2O) was over 512 µg/mL, the MIC ([1]; water additive DMSO) was over 512 µg/mL and the MIC ([1]; water additive EtOH) was over 512 µg/mL. The MIC (E. coli ATCC 25922; H2O) was over 512 µg/mL, the MIC (E. coli ATCC 25922; water additive DMSO) was over 512 µg/mL and the MIC (E. coli ATCC 25922; water additive EtOH) was over 512 µg/mL. The MBC (S. schleiferi c.i.; H2O) was 8 µg/mL (≈ 12.3 µM), the MIC (S. schleiferi c.i.; H2O) was 4 µg/mL (≈ 6.16 µM) and the MBC (S. schleiferi c.i.; water additive DMSO) was 16 µg/mL (≈ 24.6 µM). It also gave an MIC (S. schleiferi c.i.; water additive DMSO) of 8 µg/mL (≈ 12.3 µM), an MBC (S. schleiferi c.i.; water additive EtOH) of 8 µg/mL (≈ 12.3 µM) and an MIC (S. schleiferi c.i.; water additive EtOH) of 4 µg/mL (≈ 6.16 µM). For the same molecule, the “proliferation relative to control at 150 μg/mL (highest tested concentration)” value ([2]; 150 μg/mL) was 50%, the “effect on proliferation, in words” value ([2]; 48 and 72 h, 0.01–150 μg/mL) was “negative impact” and the MIC (S. cohnii c.i.; water additive DMSO) was 32 µg/mL (≈ 49.2 µM). The MIC (S. cohnii c.i.; water additive EtOH) was 32 µg/mL (≈ 49.2 µM), the MIC (S. agalactiae ATCC 27956; H2O) was 16 µg/mL (≈ 24.6 µM) and the MBC (S. agalactiae ATCC 27956; water additive DMSO) was 32 µg/mL (≈ 49.2 µM). The MIC (S. agalactiae ATCC 27956; water additive DMSO) was 16 µg/mL (≈ 24.6 µM), the MIC (S. agalactiae ATCC 27956; water additive EtOH) was 32 µg/mL (≈ 49.2 µM) and the “cytotoxicity (LDH), in words” value ([3]; 50-150 μg/mL) was “no negative effect at 50 μg/mL concentration”. For the same molecule, the “concentration at which cytotoxic effect starts” value ([3]; LDH) was 100 µg/mL, the MIC (S. mutans c.i.; H2O) was over 512 µg/mL and the MIC (S. mutans c.i.; water additive DMSO) was over 512 µg/mL. The MIC (S. mutans c.i.; water additive EtOH) was over 512 µg/mL, the MIC (P. aeruginosa ATCC 10145; H2O) was 512 µg/mL (≈ 788 µM) and the MIC (P. aeruginosa ATCC 10145; water additive DMSO) was 512 µg/mL (≈ 788 µM). For the same molecule, the MBC (P. aeruginosa ATCC 10145; water additive EtOH) was 512 µg/mL (≈ 788 µM), the MIC (P. aeruginosa ATCC 10145; water additive EtOH) was 256 µg/mL (≈ 394 µM) and the MBC (S. intemrdius c.i.; H2O) was 16 µg/mL (≈ 24.6 µM). For the same molecule, the MIC (S. intemrdius c.i.; H2O) was 16 µg/mL (≈ 24.6 µM), the MBC (S. intemrdius c.i.; water additive DMSO) was 16 µg/mL (≈ 24.6 µM) and the MIC (S. intemrdius c.i.; water additive DMSO) was 16 µg/mL (≈ 24.6 µM). The MBC (S. intemrdius c.i.; water additive EtOH) was 16 µg/mL (≈ 24.6 µM), the MIC (S. intemrdius c.i.; water additive EtOH) was 16 µg/mL (≈ 24.6 µM) and the MBC (P. vulgaris ATCC 6896; H2O) was 256 µg/mL (≈ 394 µM). The MBC (P. vulgaris ATCC 6896; water additive DMSO) was 256 µg/mL (≈ 394 µM), the proliferation ([4]; 72 h) was “less than 50%” and the “proliferation relative to control at 150 μg/mL (highest tested concentration)” value ([4]; XTT, 150 μg/mL) was 50%. For the same molecule, the “effect on proliferation, in words” value ([4]; XTT, 48 and 72 h, 0.01–150 μg/mL) was “negative impact”, the MBC (E. faecalis c.i.; H2O) was 256 µg/mL (≈ 394 µM) and the MBC (E. faecalis c.i.; water additive DMSO) was 256 µg/mL (≈ 394 µM). The MBC (E. faecalis c.i.; water additive EtOH) was 256 µg/mL (≈ 394 µM), the MIC (E. faecalis c.i.; water additive EtOH) was 32 µg/mL (≈ 49.2 µM) and the “cytotoxicity (LDH), in words” value (fibroblasts (46BR.1N); 50-150 μg/mL) was “no negative effect at 50 μg/mL concentration”. For the same molecule, the “concentration at which cytotoxic effect starts” value (fibroblasts (46BR.1N); LDH) was 100 µg/mL, the MIC (S. aureus ATCC 43300; H2O) was 32 µg/mL (≈ 49.2 µM) and the MIC (S. aureus ATCC 43300; water additive DMSO) was 32 µg/mL (≈ 49.2 µM). For the same molecule, the MBC (S. aureus ATCC 43300; water additive EtOH) was 32 µg/mL (≈ 49.2 µM), the MIC (S. aureus ATCC 43300; water additive EtOH) was 16 µg/mL (≈ 24.6 µM) and the MIC (S. pyogenes ATCC 19615; H2O) was 32 µg/mL (≈ 49.2 µM). For the same molecule, the MIC (S. pyogenes ATCC 19615; water additive DMSO) was 32 µg/mL (≈ 49.2 µM) and the MIC (S. pyogenes ATCC 19615; water additive EtOH) was 32 µg/mL (≈ 49.2 µM).
